Measured values published in US8722868B2, “Glycosyltransferase, novel glycosyltransferase gene, and novel sugar donor compound” (National University Corporation Tokyo University of …, priority 2009, dated 2014).

Tests used:
[1] = molecular target: T1, crude enzyme obtained from pink petals of a carnation (variety: "Beam Cherry") (glycosyltransferase) (Dianthus caryophyllus, UniProt E3W9M2); test: Relative activity of crude carnation petal enzyme on each sugar donor (glycosyl transfer to cyanidin 3-glucoside, HPLC); type: biochemical; conditions: crude enzyme 61 μg, cyanidin β-glucoside 200 μM, sugar donor 500 μM, citric acid buffer pH 5.6, 30° C., 15 minutes; HPLC area of cyanidin 3,5-O-β diglucoside
T1 construct: Thus, a crude enzyme liquid was obtained; from tissue; host or cells: pink petals of carnation, variety Beam Cherry (ammonium sulfate precipitate, desalted)
T1 sequence (E3W9M2 31-502): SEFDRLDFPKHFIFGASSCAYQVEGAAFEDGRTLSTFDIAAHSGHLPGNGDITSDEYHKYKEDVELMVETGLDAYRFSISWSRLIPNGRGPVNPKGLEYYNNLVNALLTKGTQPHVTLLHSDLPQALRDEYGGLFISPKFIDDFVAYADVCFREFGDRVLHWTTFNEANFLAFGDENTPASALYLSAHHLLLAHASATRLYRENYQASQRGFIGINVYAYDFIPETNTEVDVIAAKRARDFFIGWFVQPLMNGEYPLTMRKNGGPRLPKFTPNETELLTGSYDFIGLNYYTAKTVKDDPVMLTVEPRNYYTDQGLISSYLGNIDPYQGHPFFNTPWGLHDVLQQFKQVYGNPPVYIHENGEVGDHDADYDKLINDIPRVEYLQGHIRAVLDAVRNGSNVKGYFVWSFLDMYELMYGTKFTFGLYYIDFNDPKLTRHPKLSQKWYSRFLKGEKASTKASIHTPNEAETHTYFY
Experimental: An enzyme reaction was carried out at 30° C. for 15 minutes in a reaction solution obtained by adding a citric acid buffer (pH 5.6) to a crude enzyme obtained from pink petals of a carnation (variety: “Beam Cherry”) (61 μg), cyanidin β-glucoside (200 μM), and a sugar donor (1-O-β-vanillyl glucose extracted from a carnation or any of synthesized 1-O-vanillyl glucose (in the α or β form), 1-O-isovanillyl glucose (in the α or β form), and 1-O-galloyl glucose (in the α or β form)) (500 μM) to a final volume of 30 μl. The reaction was terminated by adding a 20% phosphoric acid aqueous solution to the reaction liquid so as to result in a final phosphoric acid concentration of 1%, followed by centrifugation. The obtained supernatant was subjected to separation using an HPLC (Chromolith Speed ROD; 4.6×50 mm; Merck) with a linear gradient (5 minutes) of 18% to 28% liquid B containing eluent A (a 1.5% phosphoric acid aqueous solution) and eluent B (a 90% methanol aqueous solution) (flow rate: 3.0 ml/min; 520 nm), followed by analysis. The relative activity of the enzyme on each sugar donor was calculated based on the HPLC chromatogram area of a reaction product (cyanidin 3,5-O-β diglucoside) at a wavelength of 505 nm.

[2] = molecular target: T2, enzyme purified from pink petals of a carnation (variety: "Beam Cherry") (glycosyltransferase) (Dianthus caryophyllus, UniProt E3W9M2); test: Relative activity of glycosyltransferase purified from carnation on each sugar donor (HPLC); type: biochemical; conditions: purified enzyme 135 ng, cyanidin 3-glucoside 200 μM, sugar donor 500 μM, citric acid buffer pH 5.6, 30° C., 15 minutes; HPLC area of cyanidin 3,5-O-β-diglucoside
T2 construct: the enzyme comprising 502 amino acid residues was translated, followed by amino acid removal via processing; from tissue; host or cells: petals of carnation, variety Beam Cherry
T2 sequence (E3W9M2 31-502): T1 sequence (E3W9M2 31-502)
Experimental: An enzyme reaction was carried out at 30° C. for 15 minutes using an enzyme (135 ng) purified from pink petals of a carnation (variety: “Beam Cherry”) by the method described in Example 2 ((1) and (2)), cyanidin 3-glucoside (200 μM), and a sugar donor (1-O-β-D-vanillyl glucose or any of 1-O-β-D-p-coumaryl glucose, 1-O-β-D-caffeyl glucose, 1-O-β-D-feruloyl glucose, and 1-O-β-D-sinapoyl glucose that had been enzymatically synthesized according to the method described in Matsuba Y et al., Plant Biotechnology vol. 25, No. 4 (2008) pp. 369-375) (500 μM) in a reaction solution adjusted to 30 μl with the addition of a citric acid buffer (pH 5.6). A 20% phosphoric acid aqueous solution was added to the reaction liquid so as to result in a final phosphoric acid concentration of 1%. Thus, the reaction was terminated, followed by centrifugation. The resulting supernatant was subjected to separation using a HPLC column (Chromolith SpeedROD, 4.6×50 mm, Merck), eluent A (a 1.5% phosphoric acid aqueous solution), and eluent B (a 90% methanol aqueous solution) with a linear gradient of 18% to 28% liquid B (flow rate: 3.0 ml/min, 520 nm) (5 minutes), followed by analysis. The relative activity of the enzyme on each sugar donor was determined by calculating the area of the reaction product (cyanidin 3,5-O-β-diglucoside) on an HPLC chromatogram at a wavelength of 505 nm.

COc1ccc(C(=O)OC2OC(CO)C(O)C(O)C2O)cc1O (stereo not drawn) [1-O-β-isovanillyl glucose (synthetic), 1-O-β-isovanillyl glucose]
Relative activity of an enzyme on a sugar donor (when synthetic 1-O-β-vanillyl glucose is set as 100) [1]: 23.1

COc1ccc(C(=O)O[C@H]2O[C@H](CO)[C@@H](O)[C@H](O)[C@H]2O)cc1O [1-O-α-isovanillyl glucose (synthetic), 1-O-α-isovanillyl glucose]
Relative activity of an enzyme on a sugar donor (when synthetic 1-O-β-vanillyl glucose is set as 100) [1]: Not detectable

COc1cc(/C=C/C(=O)OC2OC(CO)C(O)C(O)C2O)cc(OC)c1O [1-O-β-D-sinapoyl glucose (synthetic), 1-O-β-sinapoyl glucose]
Relative activity of an enzyme on a sugar donor (when synthetic 1-O-β-vanillyl glucose is set as 100) [2]: 793

COc1cc(/C=C/C(=O)OC2OC(CO)C(O)C(O)C2O)ccc1O [1-O-β-D-feruloyl glucose (synthetic), 1-O-β-feruloyl glucose]
Relative activity of an enzyme on a sugar donor (when synthetic 1-O-β-vanillyl glucose is set as 100) [2]: 1320

O=C(O[C@@H]1O[C@H](CO)[C@@H](O)[C@H](O)[C@H]1O)c1cc(O)c(O)c(O)c1 [1-O-β-galloyl glucose (synthetic), 1-O-β-galloyl glucose]
Relative activity of an enzyme on a sugar donor (when synthetic 1-O-β-vanillyl glucose is set as 100) [1]: 2.4

O=C(/C=C/c1ccc(O)cc1)OC1OC(CO)C(O)C(O)C1O [1-O-β-D-p-coumaryl glucose (synthetic), 1-O-β-p-coumaryl glucose]
Relative activity of an enzyme on a sugar donor (when synthetic 1-O-β-vanillyl glucose is set as 100) [2]: 350

1-O-α-vanillyl glucose [1-O-α-vanillyl glucose (synthetic)]
Relative activity of an enzyme on a sugar donor (when synthetic 1-O-β-vanillyl glucose is set as 100) [1]: 1.7

O=C(/C=C/c1ccc(O)c(O)c1)OC1OC(CO)C(O)C(O)C1O [1-O-β-D-caffeyl glucose (synthetic), 1-O-β-caffeyl glucose]
Relative activity of an enzyme on a sugar donor (when synthetic 1-O-β-vanillyl glucose is set as 100) [2]: 464
